Source: patent publication US10940188B2, “Compounds and methods for treatment and prevention of Flavivirus infection” (priority 2016, dated 2021)
pIC50: −log10 of the molar value. Where “and” joins values, the source holds several entries; their conditions need not be identical. Equal entries are not always repeated. Where two headings read alike, the source gives them in different places.

Columns and labels:
[1] = system: ZIKV-induced caspase 3/7 activity in hNPCs; experiment: Caspase 3/7 activity assay, ZIKV-infected hNPCs; format: cell-based; settings: for IC50: read-out: Caspase 3 (IC50, uM) NPCs; for Emax: read-out: Caspase 3 (efficacy, %) NPCs
Method in brief: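 Human NPCs, SNB-19 cells or astrocytes seeded 16 h, compound added 30 min before ZIKV, then 6 h infection at 37 °C. Caspase-Glo 3/7 luminescence after 30 min at room temperature, normalized to uninfected cells (0%) and ZIKV-infected cells (100%).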

[2] = system: ZIKV-induced cell death in SNB-19 cells; experiment: ATP cell viability assay for ZIKV-induced cell death, SNB-19 cells; format: cell-based, human
Method in brief: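 The extent of cell death caused by ZIKV infection was determined from ATP levels. Cells grew in assay plates for 16 hours at 37° C. with 5% CO2, were then given ZIKV solution and kept under the same conditions for 72 hours. ATPlite reagent was applied for 15 minutes and luminescence was read on a ViewLux plate reader. Cell-free wells defined 100% killing and uninfected cell wells defined full viability.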

[3] = Homo sapiens, ZIKV-infected hNPCs
[4] = ZIKV-infected SNB-19 cells, read-out: Cell viability (IC50, uM) SNB-19
[5] = Homo sapiens, SNB-19, following ZIKV infection, read-out: IC50 (μM) for improving cell viability, SNB-19
[6] = Homo sapiens, ZIKV-infected SNB-19 cells, read-out: Cell viability (IC50, uM) SNB-19

Molecule | IC50 [1, 3] [µM] | Emax [1, 3] [%] | Cell viability (efficacy, %) SNB-19 ([2]; ZIKV-infected SNB-19 cells) [%] | also measured
COc1cccc(-c2ccc(NC(=O)C3=C(C(=O)O)CCC3)c(F)c2)c1 [Vidofludimus] | 2.45 | 87.8 | 0.0 | –
CC(C(=O)O)c1ccc(C(=O)c2ccccc2)s1 (stereo not shown) [Tiaprofenic acid] | 8.69 | 86.7 | 0.0 | –
Cc1cccc(C#Cc2ccccc2)n1 [MPEP, 2-Methyl-6-(phenylethynyl)pyridine] | 4.11 | 96.1 | 0.0 | –
Cc1ccc(O)c(-n2nc3ccccc3n2)c1 [2-(2H-Benzotriazol-2-yl)-4-methylphenol] | 4.89 | 77.6 | 0.0 | –
N#CC1(c2ccc(NC(=O)c3cccnc3NCc3ccncc3)cc2)CCCC1 [Apatinib] | – | 0 | 0.0 | –
CC(=O)Nc1ccc([C@H](C)C(=O)Nc2ncc(C(C)C)s2)cc1 [PHA-690509] | – | – | 165 | Caspase 3 (efficacy, %) NPCs ([1]; ZIKV-infected hNPCs): 73.0%; IC50 ([1]; ZIKV-infected hNPCs): 19.5 µM; IC50 [2, 4]: 10.9 µM; IC50 ([2]; following ZIKV infection, read-out: IC50 (μM) for improving cell viability, SNB-19): 10.1 µM
O=C1NC(=O)C(=Cc2ccc(-c3ccc(F)cc3)o2)S1 [CAY10505] | – | – | 0.0 | Caspase 3 (efficacy, %) NPCs ([1]; ZIKV-infected hNPCs): 83.5%; IC50 ([1]; ZIKV-infected hNPCs): 10.9 µM
CN1CCN(c2cc3c(nn2)Oc2ccccc2N3C)CC1 [Pipofezine] | 12 | 47.7 | 0.0 | –
O=C1c2ccccc2C(=O)c2c1ccc(O)c2O [Alizarin] | 21.8 | 58.5 | 0.0 | –
COc1ccc(-c2cc(=S)ss2)cc1 [Anethole trithione] | 13 | 70.3 | 0.0 | –
O=C(Nc1ccc(C(=O)O)c(O)c1)c1ccccc1 [Benzoylpas] | 4.89 | 85.4 | 0.0 | –
O=C(O)c1ccccc1NCCc1ccccc1 [Enfenamic acid] | 21.8 | 47.1 | 0.0 | –
O=C(Nc1ccc([N+](=O)[O-])cc1Cl)c1cc(Cl)ccc1O [Niclosamide] | 1.84 | 87.5 | 97.3 | IC50 [2, 5]: 1.95 µM; IC50 [2, 6]: 1.95 µM
O=C(OCc1ccccc1)c1ccc(O)cc1 [Benzylparaben] | 15.5 | 56 | 0.0 | –
O=C(O)CCC(=O)c1ccc(-c2ccccc2)cc1 [Fenbufen] | 19.5 | 72.5 | 0.0 | –
C[C@H](NC(=O)C(=O)Nc1ccccc1C(C)(C)C)C(=O)N[C@@H](CC(=O)O)C(=O)COc1c(F)c(F)cc(F)c1F [Emricasan] | 0.37 | 85.3 | 194 | IC50 [2, 5]: 0.87 µM; pIC50 ([2]; Homo sapiens, SNB-19 cells, three ZIKV strains MR766, FSS13025, PRVABC59, read-out: IC50 in the cell viability assay): 6.05 to 6.89; IC50 [2, 6]: 0.87 µM
O=S(=O)(O)c1ccc2[nH]c(-c3ccccc3)nc2c1 [Ensulizole] | – | – | 0.0 | IC50 ([1]; Homo sapiens): 1.38 µM; Emax ([1]; Homo sapiens): 80.6%
CCOCCOC(=O)C=Cc1ccc(OC)cc1 [2-Ethoxylethyl-p-methoxycinnamate] | 18.4 | 56 | 0.0 | –

Molecule | IC50 [1, 3] [µM] | Emax [1, 3] [%] | Cell viability (efficacy, %) SNB-19 ([2]; ZIKV-infected SNB-19 cells) [%] | also measured
CN(C)CCCSc1ccccc1NC(=O)/C=C/c1ccccc1 [Cinanserin] | 17.3 | 80.4 | 56.9 | IC50 [2, 6]: 19.5 µM
CN1CC(=O)NC1=NC(=O)Nc1cccc(Cl)c1 [Fenobam] | – | – | 60.5 | Caspase 3 (efficacy, %) NPCs ([1]; ZIKV-infected hNPCs): 108%; IC50 ([1]; ZIKV-infected hNPCs): 5.48 µM; IC50 [2, 4]: 1.73 µM
Flurbiprofen axetil | – | – | 0.0 | Caspase 3 (efficacy, %) NPCs ([1]; ZIKV-infected hNPCs): 0.0%
Vitamin B12 | – | – | – | Caspase 3 (efficacy, %) NPCs ([1]; ZIKV-infected hNPCs): 94.7% and 59.1%; IC50 ([1]; ZIKV-infected hNPCs): 6.9 µM and 11.3 µM; IC50 [2, 4]: 0.12 µM
O=C1NC(=O)/C(=C/c2ccc(-c3ccc(F)cc3O)o2)S1 [AS-252424] | – | – | 0.0 | Caspase 3 (efficacy, %) NPCs ([1]; ZIKV-infected hNPCs): 52.3%; IC50 ([1]; ZIKV-infected hNPCs): 1.64 µM
C/C1=C2/[N-][C@H]([C@H](CC(N)=O)[C@@]2(C)CCC(=O)NC[C@@H](C)OP(=O)([O-])O[C@H]2[C@@H](O)[C@@H](n3cnc4cc(C)c(C)cc43)O[C@@H]2CO)[C@]2(C)N=C(/C(C)=C3N=C(/C=C4N=C1[C@@H](CCC(N)=O)C\4(C)C)[C@@H](CCC(N)=O)[C@]\3(C)CC(N)=O)[C@@H](CCC(N)=O)[C@]2(C)CC(N)=O.[Co+3].[OH-] [Hydroxocobalamin] | – | – | 0.0 | Caspase 3 (efficacy, %) NPCs ([1]; ZIKV-infected hNPCs): 67.4%; IC50 ([1]; ZIKV-infected hNPCs): 0.87 µM
CC(C(=O)O)c1ccc(C(=O)c2cccs2)cc1 (stereo not shown) [Suprofen] | 15.5 | 59.1 | 0.0 | –
Nc1nc2ccc([N+](=O)[O-])cc2s1 [2-Amino-6-nitrobenzothiazole] | 56.2 | 57.1 | 0.0 | –
O=C(Oc1ccccc1)c1cccc(C(=O)Oc2ccccc2)c1 [Diphenyl isophthalate] | 4.47 | 89.4 | 0.0 | –
CCC(C(=O)O)c1ccc(N2Cc3ccccc3C2=O)cc1 (stereo not shown) [Indobufen] | 6.15 | 81.3 | 0.0 | –
c1ccc(CCNc2nc(-c3ccccc3)cs2)cc1 [Fanetizole] | 14.6 | 81.8 | 0.0 | –
CC(=O)Oc1cccc2c1C(=O)c1c(OC(C)=O)cc(C(=O)O)cc1C2=O [Diacerein] | 15.5 | 56.5 | 0.0 | –
Cc1cc(O)c2c(c1)C(=O)c1cc(O)cc(O)c1C2=O [Emodin] | 2.59 | 82.1 | 0.0 | –
O=C(c1ccccc1)c1ccc2n1CCC2C(=O)O (stereo not shown) [Ketorolac tromethamine] | 10.3 | 75 | 0.0 | –
O=C(O)c1ccccc1Nc1cccc(C(F)(F)F)c1 [Flufenamic acid] | 17.3 | 68.1 | 0.0 | –
Cc1cccc(/C=C/c2ccccc2)n1 [SIB 1893] | – | – | 0.0 | Caspase 3 (efficacy, %) NPCs ([1]; ZIKV-infected hNPCs): 95.2%; IC50 ([1]; ZIKV-infected hNPCs): 8.69 µM
O=C(O)c1cc([N+](=O)[O-])ccc1NCCCc1ccccc1 [5-Nitro-2-(3-phenylpropylamino)benzoic acid] | 8.69 | 59.8 | 0.0 | –
c1ccc2[nH]c(-c3cscn3)nc2c1 [Thiabendazole] | 9.75 | 83.4 | 0.0 | –
